Laboratory results taken from ChEMBL document CHEMBL1149964, “The structure of MK-571 (form I) at 170 K and conformational analysis by molecular modeling” (Bioorg Med Chem Lett, 1992).

Experiments:
[1] = target: T1, Cysteinyl leukotriene receptor 1 (Homo sapiens) (UniProt Q9Y271); test: In vitro antagonistic activity against leukotriene D4 receptor; A - Active; assay type: functional; details: filed as antagonist
T1 sequence (whole entry): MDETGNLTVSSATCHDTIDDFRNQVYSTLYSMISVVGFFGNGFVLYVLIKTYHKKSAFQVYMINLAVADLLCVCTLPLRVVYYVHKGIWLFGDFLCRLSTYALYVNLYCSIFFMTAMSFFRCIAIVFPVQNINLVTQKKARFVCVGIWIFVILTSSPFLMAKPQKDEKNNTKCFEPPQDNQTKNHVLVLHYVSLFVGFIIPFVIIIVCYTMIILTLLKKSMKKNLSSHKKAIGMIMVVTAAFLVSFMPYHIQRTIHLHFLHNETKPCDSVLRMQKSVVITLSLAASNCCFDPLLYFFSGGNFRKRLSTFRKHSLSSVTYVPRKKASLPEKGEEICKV

[2] = target: T1, Cysteinyl leukotriene receptor 1 (Homo sapiens); test: In vivo antagonistic activity against leukotriene D4 receptor; A - Active; assay type: functional, organism-based; details: filed as antagonist

## CN(C)C(=O)CCS[C@H](SCCC(=O)O)c1cccc(/C=C/c2ccc3ccc(Cl)cc3n2)c1
[1]
  Activity: Antagonist
[2]
  Activity: Antagonist

## CN(C)C(=O)CCSC(SCCC(=O)O)c1cccc(/C=C/c2ccc3ccc(Cl)cc3n2)c1 (centres undefined)
[1]
  Activity: Antagonist
[2]
  Activity: Antagonist
